Assay results taken from US10653693B2, “PRMT5 inhibitors and uses thereof” (Epizyme, Inc., priority 2014, dated 2020).
Like-named read-outs stand apart in the source and are kept apart here.

How the values were obtained:
Assay type in all cases: cell-based
[1] = system: SW48 colon cancer cells (SW48−/− vs SW48); experiment: Sensitivity of cells lacking p53 versus wild-type; conditions: based on EC50, gIC50, or gIC90
Source text: PRMT5 methylation of non-histone substrates (such as E2F1 and p53) also contributes to cancer cell growth and death. Results of Western blot and PCR experiments indicate PRMT5 inhibition leads to gene expression and splicing changes, ultimately resulting in the induction of p53 in cancer cells. A PRMT5 inhibitor of Formula C was used to generate the data in FIG. 21 and FIG. 22.

[2] = system: sDMA methylation in Jeko-1 cells; experiment: sDMA western blot, 10 kDa band to total SmD3; conditions: Homo sapiens
Experimental: The measurement of the 10 kDa band was used to calculate the methylation IC50 values. […] Concentration-dependent decreases in the 10 kDa band were observed on day 4 in all cell lines tested with representative western blots shown for Z-138 and Maver-1 cell lines (FIG. 1). Levels of the 10 kDa band from the western blots were quantified by densitometry and ratios of 10 kDa band (postulated to be SmD3me2s) to total SmD3 were calculated to determine the IC50s (Table 2, n=1 for all samples).

Z-138 = experiment: Long-term proliferation (LTP) assay; conditions: Homo sapiens
Experimental: FIG. 4 illustrates a representative sample of a long-term proliferation assay performed in the mantle cell lymphoma cell line Z-138. Assays were performed in technical triplicates, reading cell viability over 14 days. Growth curves (top panel) were calculated in Excel. IC50 (bottom panel) and IC90 (not shown) values were calculated in GraphPad Prism using a non-linear regression analysis, fixing the top and bottom of the curves to 100 and 0%, respectively. The IC50 values in the Table are indicated in microM. [table]

Jeko-1 = experiment: Long-term proliferation (LTP) assay; conditions: Homo sapiens
[3] = system: cellular methylation (symmetric di-methyl arginine) in Maver-1 cells; experiment: In Cell Western (ICW) methylation assay, SYM11 antibody; conditions: Homo sapiens, Maver1, 96 h, 4 days of treatment, n=1
Experimental: [Worded in the source for another cell line; this cell line is reported under the same test.] Percent inhibition was determined and IC50 curves were generated using triplicate wells per concentration of compound. IC50 values were calculated using GraphPad Prism using a 4-parametric fit of the normalized dose response curves with the top fixed to 100%. Z-138 cells were seeded in assay medium at a concentration of 50,000 cells per mL to a 384-well cell culture plate with 50 μL per well. Compound (100 nL) from 384 well source plates was added directly to 384 well cell plate. Plates were incubated at 37° C., 5% CO2 for 96 hours. After four days of incubation, 40 μL of cells from incubated plates were added to poly-d-lysine coated 384 well culture plates (BD Biosciences 356697). Plates were incubated at room temperature for 30 minutes then incubated at 37° C., 5% CO2 for 5 hours. After the incubation, 40 μL per well of 8% paraformaldehyde in PBS (16% paraformaldahyde was diluted to 8% in PBS) was added to each plate and incubated for 30 minutes. Plates were transferred to a Biotek 405 plate washer and washed 5 times with 100 μL per well of wash buffer (1×PBS with 0.1% Triton X-100 (v/v)). […] The average of the ratio values for each control type was calculated and used to determine the percent inhibition for each test well in the plate. […] Percent inhibition was determined and IC50 curves were generated using triplicate wells per concentration of compound. […]

Granta-519 = experiment: Long-term proliferation (LTP) assay; conditions: Homo sapiens
Maver-1 = experiment: Long-term proliferation (LTP) assay; conditions: Homo sapiens
[4] = 264 h, 11-day treatment, N = 1, read-out: Formula B LTP IC50
[5] = 264 h, 11-day treatment, N = 1, read-out: Formula B LTP IC90

SMILES | sensitivity of cells lacking p53 compared to wild-type [1] | IC50 ([2]; 96 h, day 4, N = 1, read-out: sDMA Western blot IC50 10 kDa Band) | IC50 ([2]; Table 3, read-out: sDMA Western IC50) | IC50 (Z-138; [4]) | IC90 (Z-138; [5]) | IC50 (Z-138; Table 3, read-out: LTP IC50) | IC50 (Jeko-1; [4]) | IC90 (Jeko-1; [5]) | IC50 (Jeko-1; Table 3, read-out: LTP IC50) | IC50 [3] | IC50 (Granta-519; [4]) | IC90 (Granta-519; [5]) | IC50 (Granta-519; Table 3, read-out: LTP IC50) | IC50 (Maver-1; Maver1, 264 h, 11-day treatment, N = 1, read-out: Formula B LTP IC50) | IC90 (Maver-1; Maver1, 264 h, 11-day treatment, N = 1, read-out: Formula B LTP IC90) | IC50 (Maver-1; Maver1, Table 3, read-out: LTP IC50)
O=C(NC[C@H](O)CN1CCc2ccccc2C1)c1ccnc(NC2CCC2)c1 [Formula C] | less sensitive |  |  |  |  |  |  |  |  |  |  |  |  |  |  | 
CC(=O)N1CCC(Nc2cc(C(=O)NC[C@H](O)CN3CCc4ccccc4C3)ccn2)CC1 [Formula B] |  | 9.5 nM | 9.5 nM | 3 nM | 20 nM | 2 nM | 14 nM | 149 nM | 5.2 nM | 1.9 nM | 12 nM | 77 nM | 6 nM | 26 nM | 73 nM | 15.3 nM
